The term IC50 denotes the midpoint of a concentration-inhibition curve.

From PubChem BioAssay AID504555 (Johns Hopkins Ion Channel Center, 2011) come the findings set out here.

Assay [1] deals with Voltage-gated inwardly rectifying potassium channel KCNH2 (Homo sapiens) (UniProt Q12809). Briefly: hERG current block potency – CHO cells, automated electrophysiology, selectivity assay for Kir2.1 inhibitor project, SAR follow-up (AID 504555). As to conditions: automated patch clamp, tail current. (In general: Block of hERG is tested as a sign of cardiac risk.)
The target in assay [2] is Inward rectifier potassium channel 2 (Mus musculus) (UniProt P35561). The assay is described as above. As to conditions: automated patch clamp, tail current, at 30 µM (top of the series).

The source made the active and inactive calls.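 How the source made its calls: active means dose dependent inhibition of hERG heart potassium channel current within the tested dose range; inactive means the rest.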

Chain of Voltage-gated inwardly rectifying potassium channel KCNH2 (Homo sapiens) (Q12809 whole entry, looked up): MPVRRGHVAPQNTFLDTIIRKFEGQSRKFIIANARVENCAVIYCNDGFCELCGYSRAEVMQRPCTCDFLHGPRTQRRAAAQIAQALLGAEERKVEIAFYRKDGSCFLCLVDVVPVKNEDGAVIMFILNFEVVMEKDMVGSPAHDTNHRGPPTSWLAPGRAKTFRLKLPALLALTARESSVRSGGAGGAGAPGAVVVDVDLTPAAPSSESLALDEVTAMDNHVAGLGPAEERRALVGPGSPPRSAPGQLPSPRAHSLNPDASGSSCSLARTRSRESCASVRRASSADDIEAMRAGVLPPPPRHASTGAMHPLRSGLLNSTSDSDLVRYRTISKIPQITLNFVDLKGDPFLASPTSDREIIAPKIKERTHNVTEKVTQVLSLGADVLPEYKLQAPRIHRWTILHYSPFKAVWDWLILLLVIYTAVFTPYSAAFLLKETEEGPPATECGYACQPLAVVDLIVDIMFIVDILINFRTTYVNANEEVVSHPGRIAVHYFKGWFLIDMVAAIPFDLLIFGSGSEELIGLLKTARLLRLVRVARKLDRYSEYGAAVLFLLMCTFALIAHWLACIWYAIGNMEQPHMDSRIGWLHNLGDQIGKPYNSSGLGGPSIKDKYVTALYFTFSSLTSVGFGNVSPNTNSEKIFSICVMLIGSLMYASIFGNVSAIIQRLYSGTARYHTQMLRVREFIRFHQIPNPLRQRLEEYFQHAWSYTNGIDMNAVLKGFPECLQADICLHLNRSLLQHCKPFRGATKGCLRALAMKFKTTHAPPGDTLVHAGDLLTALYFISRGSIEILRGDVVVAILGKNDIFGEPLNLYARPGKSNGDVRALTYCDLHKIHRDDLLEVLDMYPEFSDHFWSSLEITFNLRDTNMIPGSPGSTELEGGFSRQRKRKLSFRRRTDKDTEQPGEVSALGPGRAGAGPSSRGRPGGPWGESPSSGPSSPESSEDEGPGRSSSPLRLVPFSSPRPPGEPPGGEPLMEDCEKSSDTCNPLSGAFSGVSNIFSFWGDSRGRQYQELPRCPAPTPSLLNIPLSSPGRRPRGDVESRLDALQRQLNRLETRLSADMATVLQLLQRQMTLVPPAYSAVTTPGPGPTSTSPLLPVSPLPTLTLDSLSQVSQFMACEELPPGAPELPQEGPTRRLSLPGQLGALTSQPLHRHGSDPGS
Chain of Inward rectifier potassium channel 2 (Mus musculus) (P35561 whole entry, looked up): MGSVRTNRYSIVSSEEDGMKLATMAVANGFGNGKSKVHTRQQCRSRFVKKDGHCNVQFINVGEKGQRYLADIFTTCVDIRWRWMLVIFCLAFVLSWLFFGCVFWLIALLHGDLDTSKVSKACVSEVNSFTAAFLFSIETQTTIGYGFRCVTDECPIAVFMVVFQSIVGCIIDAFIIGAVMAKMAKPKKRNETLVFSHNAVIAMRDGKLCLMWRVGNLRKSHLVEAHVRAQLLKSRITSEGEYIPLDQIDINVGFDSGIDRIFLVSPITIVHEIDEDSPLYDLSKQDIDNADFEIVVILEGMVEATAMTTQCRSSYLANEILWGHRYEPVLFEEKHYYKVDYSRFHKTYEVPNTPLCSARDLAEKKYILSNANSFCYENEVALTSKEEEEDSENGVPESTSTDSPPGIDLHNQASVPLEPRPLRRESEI

Consider `Cc1ccc(Nc2cc(C)nc3c(C)cccc23)cc1`, for which the IC50 in assay [1] is 2.33 µM. Take `c1ccc(COc2ccc(OCCCNC3CCCC3)cc2)cc1`: the IC50 in assay [1] is 2.19 µM. On the same count and under the same terms, next, `Cc1ccc2nc(NCc3ccccc3)[nH]c2c1`: 13 µM; `C[C@H](NS(=O)(=O)c1cccc(Br)c1)c1ccccc1`: 10.2 µM.

As to `Cc1noc(C)c1COC(=O)CCN1c2ccccc2Sc2ccccc21`, the concentration for half-maximal inhibition (IC50) in assay [1] was 29.1 µM.

For `C[C@@H](NS(=O)(=O)c1ccc(Cl)cc1)c1ccccc1`, the IC50 in assay [1] is 19.5 µM. The same measure, in the same setting: to `CC(O)CNCCCOc1cccc(Oc2ccccc2)c1` (centres undefined) belongs 6.96 µM. Same read-out and setting: to `Cc1ccc2nc(N3CCN(CCO)CC3)nc(-c3ccccc3)c2c1` belongs 2.9 µM. On the same count and under the same terms, to `C[C@H](NS(=O)(=O)c1ccc(Br)cc1)c1ccccc1` belongs 17.6 µM. As to `O=S(=O)(c1ccc(F)cc1)N1CCCc2ccccc21`, in assay [2], the “current change, negative = inhibition” value is “inactive”.

`Cc1ccc(C)c(OCCCNCc2ccccc2)c1`: the IC50 in assay [1] was 19.3 µM. On the same count and under the same terms, to `C[C@@H](NS(=O)(=O)c1cccc(Br)c1)c1ccccc1` belongs 17.6 µM; to `c1ccc(CNc2c3ccccc3nc3ccccc23)cc1`, 0.433 µM; to `Cc1ccc(S(=O)(=O)N[C@@H](C)c2ccccc2)cc1`, 27.6 µM.
